Data on one compound can be found in US20060257481A1, “Sustained release formulation and dosing schedule of leukotriene synthesis inhibitor for human therapy” (deCODE Genetics ehf., priority 2005, published 2006).

Series [1] in a line: Effect of a high fat meal on DG-031 pharmacokinetics. In kind it is in vivo, human. Particulars: administration with a high fat meal. The source says:
In the context of treatment of a single individual, a steady state concentration may be expected to fluctuate from day-to-day with variations in the individual's diet, level activity, state of health, co-administration of other medications, and the like. DG-031 is preferably administered with food to improve adsorption. […] In this context, the steady state concentration for an individual refers to an average concentration taken at multiple time points, to adjust for such fluctuation.

The subject of the next series is MPO. Briefly: Study DG-031-201: MPO in plasma. The note with it: difference visit 2 to visit 5; 500 and 750 mg/day vs placebo cohort. In kind it is in vivo, human. The procedure:
(§1) Patients who met the study eligebility criteria were enrolled and randomized into 3 different dose-level groups: (1) 64 patients on 250 mg/day therapy with DG-031 (250 mg q.d.), vs placebo; (2) 64 patients on 500 mg/day therapy with DG-031 (250 mg b.i.d.) vs placebo; and (3) 63 patients on 750 mg/day therapy with DG-031 (250 mg t.i.d.) vs placebo. […] All patients received 3 tablets per day. Treatment periods, 4 weeks in duration each, were separated by a 2-week washout period. The placebo tablets were identical in shape, color, form and taste to the active tablets except that they contained no active drug ingredients. Treatment with DG-031 or placebo was in addition to the subject's standard care, including all medications and treatment plan as prescribed by the subject's cardiologist prior to enrolment. A total of 191 subjects were enrolled, with 172 completing all 8 visits or 8 patients short of the target of 180 patients. […]
(§2) All data were analyzed according to a pre-established statistical analysis plan (SAP) and by intention-to-treat (ITT). […] The difference between DG-031 and placebo treatment was the primary outcome, assessed separately for each of the biomarkers. […]

A short description of series [2]: Clinical studies, safety and tolerability in CAD patients. The class given is in vivo, human. How it is done:
Previous clinical studies administered the dosages of DG-031 either in a single dose (QD) or twice a day (BID)
A total daily dose of 750 mg, dosed at 250 mg TID, provides a preferable PK/PD relationship (inhibition of LTB4) and efficacy in terms of lowering other biomarkers of MI risk (i.e. MPO and CRP).

In series [3] the test system is MPO release by ionomycin-activated neutrophils ex vivo. Nature of the series: Study DG-031-201: MPO in whole blood ex vivo after ionomycin activation. Details: species or system human. The note with it: p=0.02. The procedure: as §1, §2
Another series deals with MCP-1. Briefly: Study DG-031-201: MCP-1. The class given is in vivo, human. The note with it: difference visit 2 to visit 5; 500 and 750 mg/day vs placebo cohort. The procedure:
Patients who met the study eligebility criteria were enrolled and randomized into 3 different dose-level groups: (1) 64 patients on 250 mg/day therapy with DG-031 (250 mg q.d.), vs placebo; (2) 64 patients on 500 mg/day therapy with DG-031 (250 mg b.i.d.) vs placebo; and (3) 63 patients on 750 mg/day therapy with DG-031 (250 mg t.i.d.) vs placebo. […] All patients received 3 tablets per day. Treatment periods, 4 weeks in duration each, were separated by a 2-week washout period. The placebo tablets were identical in shape, color, form and taste to the active tablets except that they contained no active drug ingredients. Treatment with DG-031 or placebo was in addition to the subject's standard care, including all medications and treatment plan as prescribed by the subject's cardiologist prior to enrolment. A total of 191 subjects were enrolled, with 172 completing all 8 visits or 8 patients short of the target of 180 patients.
All data were analyzed according to a pre-established statistical analysis plan (SAP) and by intention-to-treat (ITT). Each arm of the study, as well as pooled sets (combining dose levels), was considered for the primary analysis. […] The difference between DG-031 and placebo treatment was the primary outcome, assessed separately for each of the biomarkers. […]

For another series, the system named is Lp-PLA2. Nature of the series: Study DG-031-201 cross-over trial: Lp-PLA2. In kind it is in vivo, human. The note with it: highest dose; [3%,16%], p=0.006. The procedure: as §1, §2
A further series relates to Amyloid A. Nature of the series: Study DG-031-201 cross-over trial: Amyloid A in serum. In kind it is in vivo, human. The note with it: week 6, p=0.05. The procedure:
as §1, §2

On to `O=C(O)[C@@H](c1ccc(OCc2ccc3ccccc3n2)cc1)C1CCCC1` [DG-031, (R)-(+)-alpha-cyclopentyl-4-(2-quinolinylmethoxy)-Benzeneacetic acid], for which, in series [1], the “Increase in AUC” value came out at 30%, the “Increase in Cmax” value is listed as 150%, the Tmax entry is reported as “no effect” and the half-life entry is recorded as “shorter half-life”. Further, the “Carry-over effect, MPO in plasma” value with MPO is reported as −0.11. For the same compound, in series [2] (250 mg QD, 375 mg QD, 250 mg BID, 375 mg BID and 250 mg TID), the Safety and tolerability entry was “safe and well tolerated”. The Safety and tolerability result in series [2] (total daily doses 375 mg and 750 mg, less than 8 days) is “safe and well tolerated”. Moreover, in series [2] (total daily doses 250, 500 and 750 mg, 128 days), the Safety and tolerability result was “safe and well tolerated”. In addition, in series [3] (750 mg/day, [2%,21%]), the “Maximum reduction in MPO production” value was found to be 12%. Also, the “Inhibition of MPO release” value in series [3] (combined dose groups of 500 mg and 750 mg TDD) is on record as “about 12%”. The “Carry-over effect, MCP-1” value in the series with MCP-1 worked out at 0.07. Further, the “Increase of Lp-PLA2” value in the series with Lp-PLA2 was 9%. For the same compound, the “Reduction of SAA” value in the series on Amyloid A is listed as 15%.
